# Results as given in patent US6423691B1, “Pharmaceutical composition for prophylaxis and therapy of diseases associated with ocular fundus tissue cytography” (Senju Pharmaceutical Co., Ltd., priority 1998, dated 2002).
# Peptide text beside a SMILES is read from it. * marks the point of attachment. Cbz = O=C(OCc1ccccc1)*
# Tests used:
# [1] = test system: retinal neurons (ganglion cells) and inner nuclear layer cells; experiment: Effect on rat ocular fundus tissue cytopathy (central retinal artery occlusion/reperfusion); type: in vivo; conditions: male SD rats, 75 min central retinal artery occlusion, 100 mg/kg i.p. 15 min before occlusion, immediately after reperfusion, then once daily; specimens 5 days after reperfusion
# Description: FIG. 1 is a diagrammatic representation of the effect on injury of rat retinal ganglion cells. The ordinate represents the number of ganglion cells. In the diagram, a) denotes a significant difference (p<0.01) from the normal group by Student's t-test; b) denotes a significant difference (p<0.01) from the control group by Student's t-test.
# FIG. 2 is a diagrammatic representation of the effect on injury of the rat retinal inner nuclear layer cells. The ordinate represents the number of inner nuclear layer cells. In the diagram, a) denotes a significant difference (p<0.01) from the normal group by Student's t-test; b) denotes a significant difference (p<0.01) from the control group by Student's t-test.
# Effect on Rat Ocular Fundus Tissue Cytopathy Method:
# Using male SD rats (b. wt. 150 g), the central retinal artery was occluded with an aneurysm clip under anesthesia with 5 w/v % ketamine HCl/2 w/v % xylazine HCl (3:1, 0.5 ml, i.p.) to arrest the blood flow for 75 minutes. In the normal group, the central retinal artery was exposed but ischemia was not introduced. Tissue specimens were prepared 5 days after reperfusion. For use as a tissue specimen, the enucleated eyeball was fixed in 4% formaldehyde and embedded in paraffin in a routine manner. Then, thin sections (3 μm thick) were prepared by transverse slicing at right angles with the retinal surface including the optic disc and stained with hematoxylin-eosin. Under the light microscope, the retinal neurons (ganglion cells) and inner nuclear layer cells were counted per 0.25 mm span of the retinal section at a predetermined distance (1-2 mm) from the optic disc. As the test drug, a parenteral suspention prepared as in Example 3 was administered intraperitoneally in a dose of 100 mg, as Compound 1, per kg body weight 15 minutes before arterial occlusion, immediately after reperfusion, and thereafter once daily (Compound 1 administration group). The control and normal groups were similarly given the vehicle used in Example 3. In the positive control group, Cbz-Val-Phe-H [S.C. Hong et al., Stroke, 25 (3), 663-669, 1994], 100 mg/kg, was similarly administered (MDL administration group).
# [2] = test system: calpain; experiment: Effect on rat enucleated retina cytopathy under hypoxia (spectrin cleavage, SDS electrophoresis); type: cell-based; conditions: rat retina incubated under hypoxia in glucose-free RPMI 1640, 3 and 6 hours, 100 μM
# Experimental: FIG. 3(a) and FIG. 3(b) are SDS electrophoretic images showing the cleavage product of endocellular spectrin obtained upon homogenation of retina tissues detected after incubation of rat retina tissues under hypoxia, wherein FIG. 3(a) and FIG. 3(b) show SDS electrophoretic images after incubation for 3 hours and 6 hours, respectively.
# Effect on Rat Enucleated Retina Cytopathy Under Hypoxia Method:
# The ocular fundus tissue (retina) of male SD rats (b. wt. 150 g) was removed and incubated under hypoxia in RPMI 1640 medium (manufactured by (Gibco) without glucose. The ocular fundus tissue was homogenized 3 and 6 hours later, and the cleavage product of endocellular spectrin was isolated by SDS electrophoresis and detected using homophil prepared by the method of Saido et. al. [The Journal of Biological Chemistry, 268, 25239-25243 (1993)]. As the test compounds, Compound 1 and MDL were dissolved in ethanol to a concentration of 20 mM and added to the culture medium to a concentration of 100 μM (Compound 1 administration group and MDL administration group). As a control, the ocular fundus tissue of male SD rats (b. wt. 150 g) was incubated in the same manner in the presence of oxygen in RPMI 1640 medium containing glucose.
Structure (SMILES),inhibition of the decrease in ganglion cell count caused by arterial occlusion [1],inhibition of the decrease in inner nuclear layer cell count caused by arterial occlusion [1],145 kDa band (cleavage product of spectrin) [2],150 kDa band due to the digestion of spectrin [2]
"CC(C)[C@H](NC(=O)OCc1ccccc1)C(=O)N[C@H](C=O)Cc1ccccc1 [MDL, Cbz-Val-Phe-H] (Cbz-Val-Phe-aldehyde)",slight,slight,not detected,somewhat detected
"CC(C)C[C@@H](C=O)NC(=O)[C@@H](NS(=O)(=O)c1ccc(F)cc1)C(C)C [Compound 1, N-(4-fluorophenylsulfonyl)-L-valyl-L-leucinal]",significantly inhibited,significantly inhibited,not detected,somewhat detected
